The values below come from ChEMBL document CHEMBL5244271, “Targeted Drugs for Treatment of Pulmonary Arterial Hypertension: Past, Present, and Future Perspectives” (J Med Chem, 2020).

Each structure is given as a SMILES string. pIC50: −log10 of the molar value.

The nature of data set [1]: Activation of rabbit sGC assessed as induction of preconstricted aortic ring relaxation. As to conditions: Oryctolagus cuniculus.
Data set [2] in a line: Half life in human. It counts as ADME.
The nature of data set [3]: Tmax in human. It counts as ADME.
The next data set addresses T1, Endothelin-1 receptor (Homo sapiens, UniProt P25101).
T1 sequence (P25101 whole entry): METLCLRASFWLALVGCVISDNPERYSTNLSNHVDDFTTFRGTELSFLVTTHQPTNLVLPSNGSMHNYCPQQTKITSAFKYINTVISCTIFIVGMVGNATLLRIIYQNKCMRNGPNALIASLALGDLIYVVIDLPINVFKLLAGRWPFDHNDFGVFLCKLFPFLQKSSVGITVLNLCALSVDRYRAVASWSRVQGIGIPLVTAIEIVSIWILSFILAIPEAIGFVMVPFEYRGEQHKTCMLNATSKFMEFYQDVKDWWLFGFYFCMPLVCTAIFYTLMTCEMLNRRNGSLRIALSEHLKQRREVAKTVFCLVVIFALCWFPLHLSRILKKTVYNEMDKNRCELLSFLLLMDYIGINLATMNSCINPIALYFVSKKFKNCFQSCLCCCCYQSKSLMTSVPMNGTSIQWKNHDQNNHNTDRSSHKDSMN
Kind of data set: Binding affinity to recombinant human ETA.

Data set [4] concerns the target T2, Endothelin receptor type B (Homo sapiens, UniProt P24530).
T2 sequence (P24530 whole entry): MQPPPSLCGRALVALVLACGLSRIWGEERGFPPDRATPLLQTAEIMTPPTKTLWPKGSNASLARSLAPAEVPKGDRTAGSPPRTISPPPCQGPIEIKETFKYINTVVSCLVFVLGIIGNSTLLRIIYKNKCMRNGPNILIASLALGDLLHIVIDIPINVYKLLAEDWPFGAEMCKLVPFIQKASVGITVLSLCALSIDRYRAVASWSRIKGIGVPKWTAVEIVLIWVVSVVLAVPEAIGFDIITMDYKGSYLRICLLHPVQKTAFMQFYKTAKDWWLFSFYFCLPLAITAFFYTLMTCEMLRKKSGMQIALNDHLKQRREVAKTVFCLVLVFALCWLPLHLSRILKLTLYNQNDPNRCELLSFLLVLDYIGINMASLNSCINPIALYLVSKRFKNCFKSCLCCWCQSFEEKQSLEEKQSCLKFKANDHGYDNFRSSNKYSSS
Kind of data set: Binding affinity to human placenta ETB. It counts as tissue-based.

Data set [5] is described as follows: Tmax in po dosed human. The format is ADME, organism-based. As to conditions: in vivo.
Data set [6] is described as follows: Half life in po dosed human. The following applies: in vivo. It counts as ADME, organism-based.

The term pIC50 denotes −log10 of the IC50, conventionally taken in molar units. Consider `OCc1ccc(-c2nn(Cc3ccccc3F)c3ccccc23)o1`, for which the pIC50 in data set [1] is 5.31.

As for `Nc1ccnc(-c2nn(Cc3ccccc3F)c3ncccc23)n1`, the negative logarithm of the IC50 (pIC50) in data set [1] was 6.57.

Consider `Nc1nc(-c2nn(Cc3ccccc3F)c3ncccc23)nc(N)c1N1CCOCC1`, for which, in data set [1], the pIC50 is 7.00.

One may read the half-life as how long it takes for the measured level to halve. The low end stands for fast loss, the high end for slow loss. Usually Tmax stands for the time at which the peak concentration occurs. With `CCCOc1ccc(S(=O)(=O)NCCC2CCCN2C)cc1-c1nc2c(CCC)nn(C)c2c(=O)[nH]1` (stereo not drawn), the half-life in data set [2] is 12.3 h. Also, the Tmax in data set [3] amounted to 0.8 h.

`O=C(O)COC[C@H]1CC[C@H](COC(=O)N(c2ccccc2)c2ccc(Cl)cc2)CC1` showed a half-life in data set [2] of 24 h.

As for `OCc1ccc(-c2nn(Cc3ccccc3)c3ccccc23)o1`, in data set [1], the pIC50 was 5.00.

For `OCc1ccc(-c2nn(Cc3ccccc3F)c3ncccc23)o1`, the negative-log IC50 (pIC50) in data set [1] is 5.77.

With `Nc1nc(-c2nn(Cc3ccccc3F)c3ncccc23)ncc1C1CC1`, in data set [1], the pIC50 is 6.52.

`OC(CNc1nc(-c2cc(-c3ccon3)n(Cc3ccccc3F)n2)ncc1F)(C(F)(F)F)C(F)(F)F`: the half-life in data set [2] was 24 h.

For `O=S(=O)(Nc1ncnc(OCCO)c1-c1ccccc1)c1ccc(C(F)(F)F)cc1`, the negative logarithm of the IC50 (pIC50) at Endothelin-1 receptor is 4.74; in data set [4] it was 5.70.

As to `CN1CC(=O)N2[C@H](c3ccc4c(c3)OCO4)c3[nH]c4ccccc4c3C[C@@H]2C1=O`, the half-life in data set [2] is 17.5 h.

Compound `NC(=O)[C@](O)(CNc1nc(-c2cc(-c3ccon3)n(Cc3ccccc3F)n2)ncc1F)C(F)(F)F` [OLINCIGUAT] showed a half-life in data set [2] of 30 h. The Tmax in data set [3] was determined as 2 h.

As for `COC(=O)N(C)c1c(N)nc(-c2nn(Cc3ccccc3F)c3ncccc23)nc1N` [RIOCIGUAT], in data set [1], the negative logarithm of the IC50 (pIC50) is 6.92. Besides, the time of peak concentration (Tmax) in data set [5] came out at 0.5 h. The compound also gave a half-life in data set [6] of 5 h.
